Data reported in the NIST ThermoML archive (doi:10.1021/je700152c).

Experiment: molar heat capacity at saturation pressure; xn = mol fraction of the nth substance listed

CCCCn1cc[n+](C)c1.Cc1ccc(S(=O)(=O)[O-])cc1 [1-butyl-3-methylimidazolium tosylate] + O
Settings	molar heat capacity [J/K/mol]
246.29 K, Crystal, x1 = 0.3	181.97
247.04 K, Crystal, x1 = 0.37	195.61
247.05 K, Crystal, x1 = 0.83	303.46
247.42 K, Crystal, x1 = 0.3	183.98
248.02 K, Metastable crystal, x1 = 0.83	322.49
248.32 K, Crystal, x1 = 0.37	197.76
248.55 K, Crystal, x1 = 0.3	185.99
249.21 K, Crystal, x1 = 0.83	306.59
249.59 K, Crystal, x1 = 0.37	199.9
249.68 K, Crystal, x1 = 0.3	188.1
249.95 K, Metastable crystal, x1 = 0.83	325.36
250.8 K, Crystal, x1 = 0.3	190.22
250.86 K, Crystal, x1 = 0.37	202.18
251.37 K, Crystal, x1 = 0.83	309.46
251.87 K, Metastable crystal, x1 = 0.83	328.49
251.91 K, Crystal, x1 = 0.3	192.75
252.13 K, Crystal, x1 = 0.37	204.32
253.03 K, Crystal, x1 = 0.3	194.97
253.39 K, Crystal, x1 = 0.37	206.85
253.52 K, Crystal, x1 = 0.83	312.59
253.79 K, Metastable crystal, x1 = 0.83	331.88
254.13 K, Crystal, x1 = 0.3	197.41
254.64 K, Crystal, x1 = 0.37	209.37
255.24 K, Crystal, x1 = 0.3	200.05
255.66 K, Crystal, x1 = 0.83	315.71
255.7 K, Metastable crystal, x1 = 0.83	335.27
255.89 K, Crystal, x1 = 0.37	212.02
256.33 K, Crystal, x1 = 0.3	202.69
257.13 K, Crystal, x1 = 0.37	214.67
257.42 K, Crystal, x1 = 0.3	205.55
257.6 K, Metastable crystal, x1 = 0.83	339.18
257.79 K, Crystal, x1 = 0.83	318.84
258.37 K, Crystal, x1 = 0.37	217.57
258.51 K, Crystal, x1 = 0.3	208.4
259.5 K, Metastable crystal, x1 = 0.83	342.83
259.59 K, Crystal, x1 = 0.3	211.36
259.6 K, Crystal, x1 = 0.37	220.6
259.92 K, Crystal, x1 = 0.83	322.23
260.66 K, Crystal, x1 = 0.3	214.43
260.83 K, Crystal, x1 = 0.37	223.76
261.38 K, Metastable crystal, x1 = 0.83	346.22
261.73 K, Crystal, x1 = 0.3	217.6
262.04 K, Crystal, x1 = 0.83	325.62
262.05 K, Crystal, x1 = 0.37	227.04
262.8 K, Crystal, x1 = 0.3	221.09
263.25 K, Metastable crystal, x1 = 0.83	349.61
263.26 K, Crystal, x1 = 0.37	230.45
263.85 K, Crystal, x1 = 0.3	224.58
264.15 K, Crystal, x1 = 0.83	329.27
264.46 K, Crystal, x1 = 0.37	233.98
264.9 K, Crystal, x1 = 0.3	228.28
265.12 K, Metastable crystal, x1 = 0.83	353.26
265.66 K, Crystal, x1 = 0.37	238.02
265.94 K, Crystal, x1 = 0.3	232.09
266.24 K, Crystal, x1 = 0.83	333.18
266.85 K, Crystal, x1 = 0.37	241.93
266.97 K, Crystal, x1 = 0.3	236
266.99 K, Metastable crystal, x1 = 0.83	356.38
268 K, Crystal, x1 = 0.3	240.55
268.03 K, Crystal, x1 = 0.37	246.09
268.33 K, Crystal, x1 = 0.83	337.35
268.85 K, Metastable crystal, x1 = 0.83	360.03
269.01 K, Crystal, x1 = 0.3	244.56
269.2 K, Crystal, x1 = 0.37	250.51
270.02 K, Crystal, x1 = 0.3	249.64
270.37 K, Crystal, x1 = 0.37	255.18
270.4 K, Crystal, x1 = 0.83	342.31
270.7 K, Metastable crystal, x1 = 0.83	363.68
271.02 K, Crystal, x1 = 0.3	254.4
271.52 K, Crystal, x1 = 0.37	259.98
272.01 K, Crystal, x1 = 0.3	258.84
272.47 K, Crystal, x1 = 0.83	347
272.55 K, Metastable crystal, x1 = 0.83	367.59
272.66 K, Crystal, x1 = 0.37	265.28
272.99 K, Crystal, x1 = 0.3	264.76
273.8 K, Crystal, x1 = 0.37	270.96
273.97 K, Crystal, x1 = 0.3	269.83
274.39 K, Metastable crystal, x1 = 0.83	371.51
274.51 K, Crystal, x1 = 0.83	353.78
274.92 K, Crystal, x1 = 0.37	276.89
274.93 K, Crystal, x1 = 0.3	276.18
275.88 K, Crystal, x1 = 0.3	281.68
276.03 K, Crystal, x1 = 0.37	283.2
276.22 K, Metastable crystal, x1 = 0.83	375.42
276.53 K, Crystal, x1 = 0.83	361.08
276.82 K, Crystal, x1 = 0.3	288.23
277.13 K, Crystal, x1 = 0.37	289.76
277.75 K, Crystal, x1 = 0.3	295.53
278.04 K, Metastable crystal, x1 = 0.83	379.33
278.22 K, Crystal, x1 = 0.37	296.83
278.52 K, Crystal, x1 = 0.83	369.42
278.68 K, Crystal, x1 = 0.3	301.77
279.29 K, Crystal, x1 = 0.37	304.4
279.59 K, Crystal, x1 = 0.3	309.59
279.86 K, Metastable crystal, x1 = 0.83	383.76
280.35 K, Crystal, x1 = 0.37	312.6
280.48 K, Crystal, x1 = 0.3	318.37
280.49 K, Crystal, x1 = 0.83	379.59
281.36 K, Crystal, x1 = 0.3	326.4
281.39 K, Crystal, x1 = 0.37	321.44
281.67 K, Metastable crystal, x1 = 0.83	388.19
282.23 K, Crystal, x1 = 0.3	334.33
282.42 K, Crystal, x1 = 0.37	331.41
282.42 K, Crystal, x1 = 0.83	391.58
283.09 K, Crystal, x1 = 0.3	343.11
283.44 K, Crystal, x1 = 0.37	340.37
283.47 K, Metastable crystal, x1 = 0.83	393.14
283.93 K, Crystal, x1 = 0.3	351.57
284.33 K, Crystal, x1 = 0.83	406.44
284.44 K, Crystal, x1 = 0.37	351.47
284.76 K, Crystal, x1 = 0.3	360.66
285.26 K, Metastable crystal, x1 = 0.83	399.66
285.41 K, Crystal, x1 = 0.37	362.2
285.58 K, Crystal, x1 = 0.3	372.5
286.18 K, Crystal, x1 = 0.83	423.91
286.37 K, Crystal, x1 = 0.3	390.05
286.38 K, Crystal, x1 = 0.37	375.33
287.02 K, Metastable crystal, x1 = 0.83	407.22
287.16 K, Crystal, x1 = 0.3	386.46
287.33 K, Crystal, x1 = 0.37	388.2
287.96 K, Crystal, x1 = 0.3	383.82
288 K, Crystal, x1 = 0.83	449.2
288.25 K, Crystal, x1 = 0.37	402.21
288.77 K, Crystal, x1 = 0.3	372.08
288.84 K, Metastable crystal, x1 = 0.83	414.26
289.16 K, Crystal, x1 = 0.37	417.23
289.6 K, Crystal, x1 = 0.3	343.95
289.76 K, Crystal, x1 = 0.83	475.27
290.05 K, Crystal, x1 = 0.37	434.26
290.49 K, Crystal, x1 = 0.3	303.04
290.69 K, Metastable crystal, x1 = 0.83	420.52
290.92 K, Crystal, x1 = 0.37	452.18
291.45 K, Crystal, x1 = 0.3	258.1
291.45 K, Crystal, x1 = 0.83	514.89
291.76 K, Crystal, x1 = 0.37	471.62
292.49 K, Crystal, x1 = 0.3	228.39
292.58 K, Crystal, x1 = 0.37	492.69
292.6 K, Metastable crystal, x1 = 0.83	426.25
293.09 K, Crystal, x1 = 0.83	549.83
293.38 K, Crystal, x1 = 0.37	514.4
293.57 K, Crystal, x1 = 0.3	214.64
294.16 K, Crystal, x1 = 0.37	540.9
294.56 K, Metastable crystal, x1 = 0.83	426.77
